The values below come from patent US20140322250A1, “Peptides for the Treatment of Multiple Sclerosis and Related Diseases” (priority 2013, published 2014).

Data set [1] is described as follows: Pharmacokinetic study, plasma concentration by LC-MS/MS. In kind it is in vivo, male Sprague Dawley rat. The method, then:
A pharmacokinetic study of all-D-TTNYT (SEQ ID NO:2) (RAP-103) following intravenous and oral administration was conducted at a target dose level of 1 mg/kg in the male Sprague Dawley rat. The concentration of RAP-103 in each plasma and brain sample was measured using a suitable LC-MS/MS assay. The assay used was a research grade assay (RGA-1) which was established by assessing the accuracy, precision and the linearity of the method. Plasma concentrations generated were used to evaluate the pharmacokinetic parameters of all-D-TTNYT (SEQ ID NO:2) (RAP-103).
The dose formulation was administered intravenously to some animals as a slow bolus over ca 30 s via the tail vein and to a different group of animals orally via gastric gavage at a target dose volume of 1 mL/kg, to achieve a target dose level of 1 mg/kg. The dose volume administered was calculated according to the bodyweight of the animal on the day of dosing. The weight of administered dose was recorded. […] Results expressed as ng/mL

The conditions of data set [2]: 6.0 mg daily intranasal.
Procedure: Their neurological examination confirmed increased deep tendon reflexes, spasticity of the lower limbs and pyramidal weakness of the legs. Therapy, consisting of 6.0 mg of Peptide T daily, was self-administered via 4 metered intranasal sprays, delivered three times daily.
For a further data set, the target named is CCR2 (Homo sapiens, UniProt P41597). In kind it is cell-based. Particulars: for inhibition of CCR2 (MCP-1) elicited chemotaxis: FIG. 4, 20 pM peptide 30 minutes prior, MCP-1 0.6 nM for 2 hours; for blocking CCL2 (MCP-1) chemotaxis: FIG. 3, tested at 10^−14 M. The text has this:
Triplicate determinations were made and results are expressed as the mean plus or minus SEM. The experiment shown is a direct comparison among all RAPs. Statistical analysis was by unpaired t-test, with significance set at the p<0.01 (*) level for difference from CCL2 only chemotaxis.
Data are the average of 2 separate experiments, conducted with triplicate determinations. Data (chemotactic index) are presented as mean±SEM. The IC50 for inhibition of MCP-1 or MIP-1β was generated by a nonlinear inhibition curve fit in GraphPad Prism software, version 5.0. […] Data are presented as mean±SEM. *P<0.05, **P<0.01 vs RAP-103 untreated.
Triplicate determinations were performed and results are expressed as the mean plus or minus SEM. The experiment shown is a direct comparison among all RAPs. Statistical analysis was by unpaired t-test, with significance set at the p<0.01 (*) level for difference from CCL2 only chemotaxis.
A representative experiment is shown comprising triplicate determinations and is presented as relative fluorescence units, Mean±SEM.

For data set [3], the system named is β-Integrin-mediated adhesion to human fibronectin. Put plainly: MCP-1 elicited adhesion of human monocytes to human fibronectin. It counts as cell-based. The following applies: FIG. 5, 10 minutes pretreatment. The method, then:
Human monocytes were treated with the indicated doses of all-D-(IDNYT) for 10 minutes prior to adherence to the β-integrin human fibronectin. Data is the average of two separate experiments, conducted with triplicate determinations. Data are presented as Mean±SEM of the normalized adherence response from two experiments. The IC50 for inhibition of MCP-1 stimulated adherence was generated using a nonlinear inhibition curve fit in GraphPad Prism Version 5.0.

The subject of another data set is response to bradykinin. The following applies: amounts up to 50,000 times the standard challenge of bradykinin; Stewart and Woolley 1965; cited from earlier work.
Data set [4] deals with TLR4 on human monocyte-derived immature dendritic cells (human, UniProt O00206 24-839). Description: cell-based or functional assay.
TLR4 on human monocyte-derived immature dendritic cells, sequence (O00206 24-839): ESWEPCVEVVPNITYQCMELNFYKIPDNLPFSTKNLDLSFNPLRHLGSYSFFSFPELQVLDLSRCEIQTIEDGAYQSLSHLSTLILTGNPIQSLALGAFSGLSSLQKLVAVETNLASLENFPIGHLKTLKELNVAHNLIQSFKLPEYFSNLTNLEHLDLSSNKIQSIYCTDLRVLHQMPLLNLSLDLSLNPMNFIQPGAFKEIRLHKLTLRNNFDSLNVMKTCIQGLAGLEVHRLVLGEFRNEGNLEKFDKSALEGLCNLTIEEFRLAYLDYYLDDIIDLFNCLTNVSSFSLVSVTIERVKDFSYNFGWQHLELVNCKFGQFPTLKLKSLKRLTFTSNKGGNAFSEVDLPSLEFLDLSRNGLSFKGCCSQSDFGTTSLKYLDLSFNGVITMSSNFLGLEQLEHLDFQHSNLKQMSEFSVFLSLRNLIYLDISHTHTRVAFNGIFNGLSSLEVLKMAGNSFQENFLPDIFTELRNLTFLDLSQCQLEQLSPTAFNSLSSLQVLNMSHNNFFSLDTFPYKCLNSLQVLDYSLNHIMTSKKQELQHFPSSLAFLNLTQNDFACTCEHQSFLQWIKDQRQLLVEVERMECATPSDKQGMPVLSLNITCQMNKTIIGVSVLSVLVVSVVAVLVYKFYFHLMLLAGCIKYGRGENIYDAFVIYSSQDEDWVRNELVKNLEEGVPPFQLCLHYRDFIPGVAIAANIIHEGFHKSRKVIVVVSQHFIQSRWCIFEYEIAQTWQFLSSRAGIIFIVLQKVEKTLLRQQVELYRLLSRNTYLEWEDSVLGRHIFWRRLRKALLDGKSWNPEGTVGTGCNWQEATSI

Where no end group is shown, it is not given here. [ ]: non-standard residue; d: D form.

CCR2, sequence (P41597 whole entry): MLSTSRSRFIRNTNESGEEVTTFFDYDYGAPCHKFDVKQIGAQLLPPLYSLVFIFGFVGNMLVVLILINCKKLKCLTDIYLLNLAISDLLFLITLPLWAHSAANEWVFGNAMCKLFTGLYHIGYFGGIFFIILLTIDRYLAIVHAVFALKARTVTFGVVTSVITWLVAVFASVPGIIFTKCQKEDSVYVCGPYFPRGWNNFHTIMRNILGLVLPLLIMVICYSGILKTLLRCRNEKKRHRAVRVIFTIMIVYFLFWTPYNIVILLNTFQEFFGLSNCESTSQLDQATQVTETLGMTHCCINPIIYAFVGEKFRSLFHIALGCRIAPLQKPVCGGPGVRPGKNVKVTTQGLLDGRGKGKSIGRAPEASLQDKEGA

For `C[C@H](O)[C@@H](N)C(=O)N[C@@H](C(=O)N[C@H](CC(N)=O)C(=O)N[C@H](Cc1ccc(O)cc1)C(=O)N[C@@H](C(=O)O)[C@H](C)O)[C@H](C)O` [RAP-103, all-D-TTNYT], the “time of peak levels in plasma” value in data set [1] (1 mg/kg, rat) lay within 10 to 15 min. Further, the concentration in plasma in data set [1] (intravenous 1 mg/kg, 0.5 h, individual animals) was determined as 561 ng/mL. Further, the “tolerability of dose administrations” value in data set [1] (intravenous and oral gavage, 1 mg/kg, rat) is given as “well tolerated”. Moreover, the level at 0.083 h in data set [1] (male, Sprague Dawley, rat, plasma, iv, 1 mg/kg, intravenous 1 mg/kg, 0.083 h, individual animals) is 3050 ng/mL. In data set [1] (male, Sprague Dawley, rat, plasma, iv, 1 mg/kg, intravenous 1 mg/kg, 0.167 h, individual animals), the level at 0.167 h was determined as 2400 ng/mL. In data set [1] (male, Sprague Dawley, rat, plasma, iv, 1 mg/kg, intravenous 1 mg/kg, 0.25 h, individual animals), the level at 0.25 h was 2050 ng/mL. The same molecule gave a level at 0.5 h in data set [1] (male, Sprague Dawley, rat, plasma, iv, 1 mg/kg, intravenous 1 mg/kg, 0.5 h, individual animals) of 558 ng/mL. This molecule also had a level at 1 h in data set [1] (male, Sprague Dawley, rat, plasma, iv, 1 mg/kg, intravenous 1 mg/kg, 1 h, individual animals) of 405 ng/mL. On to ASTTTNYY [Peptide T], for which, in data set [2] (after 2 weeks, continued to end of week 10), the patient-reported change result was “definite improvements”. Moreover, in data set [2] (end of week 10, 65 seconds initially, one patient), the “time to walk 10 meters” value was found to be 15 s. Consider Asn-Thr-Arg-Tyr-Arg [NYRYR], for which the “inhibition of CCR2 (MCP-1) elicited chemotaxis” value (“inhibition of CCR2” for short) at CCR2 is reported as “potently block”.

“Asn-Thr-Ser-Tyr-Arg ([dN][dT][dS][dY][dR]) [NTSYR]”: the “blocking CCL2 (MCP-1) chemotaxis” value in the data set with CCR2 was “retain potency”. For “Asn-Thr-Ser-Tyr-Gly ([dN][dT][dS][dY]G) [NTSYG]”, the “inhibition of CCR2” value in the data set with CCR2 is “potently block”. Same read-out and setting: for “Glu-Thr-Trp-Tyr-Ser ([dE][dT][dW][dY][dS]) [ETWYS]” the value was “potently block”; for “Ile-Asn-Asn-Tyr-Thr ([dI][dN][dN][dY][dT]) [IDNYT (SEQ ID NO:8)]”, “potently block”. Turning to “Ile-Asp-Asn-Tyr Thr ([dI][dD][dN][dY][dT]) [IDNYT (SEQ ID NO:6)]”, the “inhibition of CCR2” value with CCR2 is on record as “potently block”. In data set [3], the “blocking of MCP-1 elicited adhesion” value is “potently blocking”. On to “Ser-Ser-Thr-Tyr-Arg ([dS][dS][dT][dY][dR]) [SSTYR]”, for which the “blocking CCL2 (MCP-1) chemotaxis” value with CCR2 is listed as “retain potency”. On the same count and under the same terms, for “Thr-Thr-Ser-Tyr-Thr ([dT][dT][dS][dY][dT]) [TTSYT]” the value was “retain potency”. On to all-D-bradykinin, for which, in the data set on response to bradykinin, the “inhibition of the response to bradykinin or bradykinin-like effect” value is listed as “neither any inhibition of the response to bradykinin, or any bradykinin-like effect”. For [dT][dT][dN][dY][dT] [all-D-TTNYT (RAP-103)], the “IC50 for inhibition of LPS (100 ng/mL) induced TNFα production in human monocyte-derived iDC (FIG. 6)” value in data set [4] was about 0.1 pM.
